Patent US8883963B2 (Cadila Healthcare Limited, priority 2007, dated 2014)

Tests used:
[1] = Stability in simulated intestinal fluid; assay type: in vitro ADME; conditions: 2 μM peptidomimetic, simulated intestinal fluid pH 7.5, 37° C.
Protocol: (§1) Reactions were terminated by the addition of TFA/H2O (15 mL, 10% (v/v)). […] The column was equilibrated with TFA/H20, at a flow rate of 1 mL/min.

[2] = Stability in simulated gastric fluid; assay type: in vitro ADME; conditions: 2 μM peptidomimetic, simulated gastric fluid pH 1.5, 37° C.
Protocol: as §1

[3] = Stability in human plasma; assay type: in vitro ADME; conditions: 2 μM peptidomimetic, pooled human plasma, 37° C.; for half-life at 2 μM: pH 7.8, read-out: half-life (t1/2) when incubated with human plasma
Protocol: as §1

[4] = target: DPP IV (Homo sapiens, UniProt P27487); test: Stability against DPP IV enzyme; assay type: in vitro ADME; conditions: 37° C.; for % degradation of peptidomimetics in 24 h when incubated with DPP-IV enzyme: 2 μM peptidomimetic; for half-life at 2 μM: DPP IV enzyme, pH 7.8, 2 μM peptidomimetic, read-out: half-life (t1/2) when incubated with DPP-IV enzyme
Protocol: as §1

[5] = Stability in liver microsomes; assay type: in vitro ADME; conditions: 2 μM peptidomimetic, human liver microsomes, 37° C.; for half-life at 2 μM: pH 7.8, read-out: half-life (t1/2) when incubated with liver microsomes
Protocol: as §1

[6] = target: T1, Human GLP-1 receptor (Homo sapiens, UniProt P43220); test: In vitro Human GLP-1 R agonist activity (cyclic AMP determination) in CHO/human GLP1R cells; assay type: cell-based
T1 construct: The full-length cDNA was cloned in pcDNA3.1(+); expressed in transfected cells

[7] = target: T2, human glucagon receptor (Homo sapiens, UniProt P47871); test: In vitro human glucagon antagonist activity (inhibition of cAMP production) in CHO/human glucagon R cells; assay type: cell-based; conditions: with saturated concentration of glucagon peptide
T2 construct: The full-length cDNA was cloned in pcDNA3.1 (Invitrogen); expressed in transfected cells

[8] = tested on: RIN5F (Rat Insulinoma) cells; test: In vitro glucose-dependent insulin secretion (RIN5F cell assay screening protocol); assay type: cell-based; conditions: 16.7 mM glucose load

T2 sequence (P47871 26-477): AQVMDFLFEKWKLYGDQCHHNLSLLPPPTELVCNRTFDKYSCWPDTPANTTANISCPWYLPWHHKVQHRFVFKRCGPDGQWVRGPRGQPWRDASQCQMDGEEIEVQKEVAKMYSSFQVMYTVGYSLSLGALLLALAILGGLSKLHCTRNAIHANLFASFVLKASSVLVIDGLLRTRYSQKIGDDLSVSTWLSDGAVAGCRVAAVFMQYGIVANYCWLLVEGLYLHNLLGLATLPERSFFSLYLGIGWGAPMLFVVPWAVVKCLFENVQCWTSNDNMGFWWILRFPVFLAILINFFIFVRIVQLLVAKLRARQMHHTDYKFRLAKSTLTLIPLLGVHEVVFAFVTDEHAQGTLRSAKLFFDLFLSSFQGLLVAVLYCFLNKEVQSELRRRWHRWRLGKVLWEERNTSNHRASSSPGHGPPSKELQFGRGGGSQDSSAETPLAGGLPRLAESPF
DPP IV, sequence (P27487 whole entry, species assumed): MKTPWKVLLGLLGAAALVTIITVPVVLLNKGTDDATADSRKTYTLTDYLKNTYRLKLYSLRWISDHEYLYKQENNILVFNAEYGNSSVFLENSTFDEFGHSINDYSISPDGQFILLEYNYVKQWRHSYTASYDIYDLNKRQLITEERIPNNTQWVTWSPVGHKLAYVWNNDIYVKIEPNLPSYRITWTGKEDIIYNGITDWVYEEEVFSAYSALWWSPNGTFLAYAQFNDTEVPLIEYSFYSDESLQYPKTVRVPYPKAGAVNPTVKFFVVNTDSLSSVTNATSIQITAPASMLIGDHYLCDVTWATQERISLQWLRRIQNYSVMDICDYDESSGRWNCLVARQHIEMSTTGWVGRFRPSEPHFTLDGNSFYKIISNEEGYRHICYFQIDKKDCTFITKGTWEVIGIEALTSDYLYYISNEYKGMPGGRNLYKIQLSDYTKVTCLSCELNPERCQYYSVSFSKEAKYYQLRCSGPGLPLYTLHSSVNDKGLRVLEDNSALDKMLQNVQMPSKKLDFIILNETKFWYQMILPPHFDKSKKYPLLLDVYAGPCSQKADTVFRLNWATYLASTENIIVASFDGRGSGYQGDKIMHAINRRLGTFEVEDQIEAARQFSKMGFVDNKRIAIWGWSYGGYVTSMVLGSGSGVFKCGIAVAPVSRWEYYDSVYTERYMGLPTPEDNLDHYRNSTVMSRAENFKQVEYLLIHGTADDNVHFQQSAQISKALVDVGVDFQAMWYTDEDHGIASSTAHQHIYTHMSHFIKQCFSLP
T1 sequence (P43220 24-463): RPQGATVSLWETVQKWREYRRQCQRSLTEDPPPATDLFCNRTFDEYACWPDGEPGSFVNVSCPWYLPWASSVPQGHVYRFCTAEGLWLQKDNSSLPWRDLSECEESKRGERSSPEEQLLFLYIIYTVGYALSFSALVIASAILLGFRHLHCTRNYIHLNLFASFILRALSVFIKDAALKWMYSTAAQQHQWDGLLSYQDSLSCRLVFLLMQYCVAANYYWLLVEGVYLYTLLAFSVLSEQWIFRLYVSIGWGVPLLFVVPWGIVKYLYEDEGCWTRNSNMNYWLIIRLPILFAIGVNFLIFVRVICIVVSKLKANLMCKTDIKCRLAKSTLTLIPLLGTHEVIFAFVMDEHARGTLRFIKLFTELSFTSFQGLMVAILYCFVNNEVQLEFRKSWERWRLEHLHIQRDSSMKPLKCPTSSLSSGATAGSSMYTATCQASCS

SMILES	% degradation of peptidomimetics in 24 h when incubated with simulated intestinal fluid [1]	% degradation of peptidomimetics in 24 h when incubated with simulated gastric fluid [2]	% degradation of peptidomimetics in 24 h when incubated with human plasma [3]	half-life at 2 μM [3]	% degradation of peptidomimetics in 24 h when incubated with DPP-IV enzyme [4]	half-life at 2 μM [4]	% degradation of peptidomimetics in 24 h when incubated with liver microsomes [5]	half-life at 2 μM [5]	Human GLP-1 R activity (cAMP release), % activity with respect to control ([6]; 1 nM test compound)	Human GLP-1 R activity (cAMP release), % activity with respect to control ([6]; 10 nM test compound)	Human GLP-1 R activity (cAMP release), % activity with respect to control ([6]; 100 nM test compound)	Human GLP-1 R activity (cAMP release), % activity with respect to control ([6]; 1 μM test compound)	Human GLP-1 R activity (cAMP release), % activity with respect to control ([6]; 10 μM test compound)	Human Glucagon receptor antagonistic activity shown as inhibition of cAMP production of Glucagon peptide ([7]; 1 nM test compound)	Human Glucagon receptor antagonistic activity shown as inhibition of cAMP production of Glucagon peptide ([7]; 10 nM test compound)	Human Glucagon receptor antagonistic activity shown as inhibition of cAMP production of Glucagon peptide ([7]; 100 nM test compound)	Human Glucagon receptor antagonistic activity shown as inhibition of cAMP production of Glucagon peptide ([7]; 1 μM test compound)	Human Glucagon receptor antagonistic activity shown as inhibition of cAMP production of Glucagon peptide ([7]; 10 μM test compound)	Insulin secretion ([8]; 0.1 nM test compd.)	Insulin secretion ([8]; 1 nM test compd.)	also measured
CCc1cc(OC)ccc1-c1ccc(CC(NC(=O)[C@H](CC(=O)O)NC(=O)[C@H](CO)NC(=O)[C@@H](NC(=O)C(C)(Cc2ccccc2F)NC(=O)[C@@H](NC(=O)CNC(=O)C(CCC#N)NC(=O)C(C)(C)NC(=O)[C@@H](N)Cc2c[nH]cn2)[C@H](C)O)[C@H](C)O)C(=O)N(C)C(CCCc2ccccc2)C(N)=O)cc1 (single isomer, unassigned) [compound 130]	55%	12%	78%	8 h	76%	9 h	79%	1 h	39 ± 0.10%	81 ± 0.08%	89 ± 0.09%	96 ± 0.11%	99 ± 0.16%	5 ± 0.04 pmol/ml/μg prt	3 ± 0.02 pmol/ml/μg prt	1 ± 0.11 pmol/ml/μg prt	0 pmol/ml/μg prt	0 pmol/ml/μg prt	17.1 ± 0.11 pg/µg/h	23.1 ± 0.16 pg/µg/h	half-life (t1/2) when incubated with simulated intestinal fluid [1]: (6) h; half-life (t1/2) when incubated with simulated gastric fluid [2]: (8) h; Insulin secretion ([8]; 10 nM test compd.): 37.0 ± 0.29 pg/µg/h
CCc1cc(OC)ccc1-c1ccc(CC(C(=O)N(C)C(CCCc2ccccc2)C(N)=O)N(C)C(=O)[C@H](CC(=O)O)N(C)C(=O)[C@H](CO)NC(=O)[C@@H](NC(=O)C(C)(Cc2ccccc2F)NC(=O)[C@@H](NC(=O)CNC(=O)C(CCC#N)NC(=O)C(C)(C)NC(=O)[C@@H](N)Cc2c[nH]cn2)[C@H](C)O)[C@H](C)O)cc1 (single isomer, unassigned) [compound 154]	46%	12%	75%	8 h	74%	9 h	83%	1 h	60 ± 0.12%	92 ± 0.15%	98 ± 0.18%	99 ± 0.03%	99 ± 0.09%	9 ± 0.11 pmol/ml/μg prt	6 ± 0.12 pmol/ml/μg prt	5 ± 0.14 pmol/ml/μg prt	3 ± 0.22 pmol/ml/μg prt	0 pmol/ml/μg prt	16.1 ± 0.22 pg/µg/h	22.1 ± 0.26 pg/µg/h	half-life (t1/2) when incubated with simulated intestinal fluid [1]: (6) h; half-life (t1/2) when incubated with simulated gastric fluid [2]: (8) h; Insulin secretion ([8]; 10 nM test compd.): 36.0 ± 0.36 pg/µg/h
CCc1cc(OC)ccc1-c1ccc(CC(NC(=O)[C@H](CC(=O)O)NC(=O)[C@H](CO)NC(=O)[C@@H](NC(=O)C(C)(Cc2ccccc2F)NC(=O)[C@@H](NC(=O)CNC(=O)C(CCC#N)NC(=O)C(C)(C)NC(=O)[C@@H](N)Cc2c[nH]cn2)[C@H](C)O)[C@H](C)O)C(=S)NC(CCCc2ccccc2)C(N)=O)cc1 (single isomer, unassigned) [compound 166]	41%	15%	70%	8 h	86%	9 h	77%	1 h	96 ± 0.02%	99 ± 0.46%	99 ± 0.41%	99 ± 0.66%	99 ± 0.03%	19 ± 0.03 pmol/ml/μg prt	17 ± 0.08 pmol/ml/μg prt	15 ± 0.01 pmol/ml/μg prt	14 ± 0.02 pmol/ml/μg prt	12 ± 0.11 pmol/ml/μg prt	15.4 ± 0.14 pg/µg/h	21.2 ± 0.18 pg/µg/h	half-life (t1/2) when incubated with simulated intestinal fluid [1]: (6) h; half-life (t1/2) when incubated with simulated gastric fluid [2]: (8) h; Insulin secretion ([8]; 10 nM test compd.): 35.6 ± 0.17 pg/µg/h
CCc1cc(OC)ccc1-c1ccc(CC(CNC(CCCc2ccccc2F)C(N)=O)NC[C@H](CC(=O)O)NC(=O)[C@H](CO)NC(=O)[C@@H](NC(=O)C(C)(Cc2ccccc2F)NC(=O)[C@@H](NC(=O)CNC(=O)[C@H](CCC(N)=O)NC(=O)C(C)(C)NC(=O)[C@H](Cc2c[nH]cn2)NC(=O)OC)[C@H](C)O)[C@H](C)O)cc1 (single isomer, unassigned) [compound 200]	00%	52%	00%	> 24 h	00%	> 24 h	81%	2 h	55 ± 0.16%	88 ± 0.13%	92 ± 0.11%	99 ± 0.07%	99 ± 0.09%	10 ± 0.16 pmol/ml/μg prt	8 ± 0.12 pmol/ml/μg prt	6 ± 0.14 pmol/ml/μg prt	4 ± 0.15 pmol/ml/μg prt	1 ± 0.12 pmol/ml/μg prt	16.5 ± 0.12 pg/µg/h	22.7 ± 0.17 pg/µg/h	half-life at 2 μM ([1]; read-out: half-life (t1/2) when incubated with simulated intestinal fluid): > 24 h; half-life at 2 μM ([2]; read-out: half-life (t1/2) when incubated with simulated gastric fluid): 4 h; Insulin secretion ([8]; 10 nM test compd.): 36.5 ± 0.05 pg/µg/h
